In ChEMBL document CHEMBL1151405, “Biological and phytochemical investigation of Clausena excavata” (J Nat Prod, 1982):
Calls of active or inactive are those of the source.

Experiments:
Type in all cases: functional, organism-based
[1] = test system: Saccharomyces pastorianus; assay: Antimicrobial activity against Saccharomyces carlsbergensis at 500 ppm after 24 hrs
Staphylococcus aureus [2] = assay: Antimicrobial activity against Staphylococcus aureus 6538-P at 500 ppm after 24 hrs
[3] = test system: Salmonella enterica subsp. enterica serovar Gallinarum; assay: Antimicrobial activity against Salmonella gallinarum X142 at 500 ppm after 24 hrs
Streptococcus pneumoniae [4] = assay: Antimicrobial activity against Pneumococcus clinical isolates at 500 ppm after 24 hrs
Bacillus subtilis [5] = assay: Antimicrobial activity against Bacillus subtilis 6633 at 500 ppm after 24 hrs
[6] = test system: Bordetella bronchiseptica; assay: Antimicrobial activity against Bordetella bronchiseptica 4614 at 500 ppm after 24 hrs
Micrococcus luteus [7] = assay: Antimicrobial activity against Sarcina lutea 9341 at 500 ppm after 24 hrs
Aspergillus niger [8] = assay: Antimicrobial activity against Aspergillus niger at 500 ppm after 24 hrs
Escherichia coli [9] = assay: Antimicrobial activity against Escherichia coli 10536 at 500 ppm after 24 hrs
Pseudomonas aeruginosa [10] = assay: Antimicrobial activity against Pseudomonas aeruginosa NCTC 10490 at 500 ppm after 24 hrs
Staphylococcus aureus [11] = assay: Antimicrobial activity against penicillin-resistant Staphylococcus aureus at 500 ppm after 24 hrs
Aspergillus niger [12] = assay: Antimicrobial activity against Aspergillus niger at 100 ppm after 24 hrs
[13] = test system: Salmonella enterica subsp. enterica serovar Gallinarum; assay: Antimicrobial activity against Salmonella gallinarum X142 at 100 ppm after 24 hrs
Bacillus subtilis [14] = assay: Antimicrobial activity against Bacillus subtilis 6633 at 200 ppm after 48 hrs
[15] = test system: Bordetella bronchiseptica; assay: Antimicrobial activity against Bordetella bronchiseptica 4614 at 10 ppm after 48 hrs
Escherichia coli [16] = assay: Antimicrobial activity against Escherichia coli 10536 at 5 ppm after 24 hrs
[17] = test system: Bordetella bronchiseptica; assay: Antimicrobial activity against Bordetella bronchiseptica 4614 at 100 ppm after 48 hrs
Staphylococcus aureus [18] = assay: Antimicrobial activity against Staphylococcus aureus 6538-P at 50 ppm after 48 hrs
Streptococcus pneumoniae [19] = assay: Antimicrobial activity against Pneumococcus clinical isolates at 200 ppm after 48 hrs
[20] = test system: Saccharomyces pastorianus; assay: Antimicrobial activity against Saccharomyces carlsbergensis at 5 ppm after 24 hrs
[21] = test system: Saccharomyces pastorianus; assay: Antimicrobial activity against Saccharomyces carlsbergensis at 10 ppm after 24 hrs
[22] = test system: Salmonella enterica subsp. enterica serovar Gallinarum; assay: Antimicrobial activity against Salmonella gallinarum X142 at 5 ppm after 24 hrs
[23] = test system: Saccharomyces pastorianus; assay: Antimicrobial activity against Saccharomyces carlsbergensis at 100 ppm after 24 hrs
Pseudomonas aeruginosa [24] = assay: Antimicrobial activity against Pseudomonas aeruginosa NCTC 10490 at 100 ppm after 48 hrs
Micrococcus luteus [25] = assay: Antimicrobial activity against Sarcina lutea 9341 at 200 ppm after 48 hrs
[26] = test system: Salmonella enterica subsp. enterica serovar Gallinarum; assay: Antimicrobial activity against Salmonella gallinarum X142 at 50 ppm after 24 hrs
Streptococcus pneumoniae [27] = assay: Antimicrobial activity against Pneumococcus clinical isolates at 100 ppm after 48 hrs
[28] = test system: Saccharomyces pastorianus; assay: Antimicrobial activity against Saccharomyces carlsbergensis at 200 ppm after 24 hrs
[29] = test system: Bordetella bronchiseptica; assay: Antimicrobial activity against Bordetella bronchiseptica 4614 at 50 ppm after 48 hrs
Bacillus subtilis [30] = assay: Antimicrobial activity against Bacillus subtilis 6633 at 5 ppm after 24 hrs
Staphylococcus aureus [31] = assay: Antimicrobial activity against penicillin-resistant Staphylococcus aureus at 200 ppm after 24 hrs
Staphylococcus aureus [32] = assay: Antimicrobial activity against Staphylococcus aureus 6538-P at 100 ppm after 48 hrs
Staphylococcus aureus [33] = assay: Antimicrobial activity against Staphylococcus aureus 6538-P at 200 ppm after 48 hrs
Bacillus subtilis [34] = assay: Antimicrobial activity against Bacillus subtilis 6633 at 10 ppm after 48 hrs
Micrococcus luteus [35] = assay: Antimicrobial activity against Sarcina lutea 9341 at 50 ppm after 24 hrs
Bacillus subtilis [36] = assay: Antimicrobial activity against Bacillus subtilis 6633 at 100 ppm after 48 hrs
Pseudomonas aeruginosa [37] = assay: Antimicrobial activity against Pseudomonas aeruginosa NCTC 10490 at 10 ppm after 48 hrs
Pseudomonas aeruginosa [38] = assay: Antimicrobial activity against Pseudomonas aeruginosa NCTC 10490 at 200 ppm after 48 hrs
Staphylococcus aureus [39] = assay: Antimicrobial activity against penicillin-resistant Staphylococcus aureus at 5 ppm after 24 hrs
[40] = test system: Saccharomyces pastorianus; assay: Antimicrobial activity against Saccharomyces carlsbergensis at 50 ppm after 24 hrs
Staphylococcus aureus [41] = assay: Antimicrobial activity against penicilln-resistant Staphylococcus aureus at 10 ppm after 24 hrs
Aspergillus niger [42] = assay: Antimicrobial activity against Aspergillus niger at 5 ppm after 24 hrs
Escherichia coli [43] = assay: Antimicrobial activity against Escherichia coli 10536 at 100 ppm after 24 hrs
Aspergillus niger [44] = assay: Antimicrobial activity against Aspergillus niger at 10 ppm after 24 hrs
Staphylococcus aureus [45] = assay: Antimicrobial activity against penicillin-resistant Staphylococcus aureus at 50 ppm after 24 hrs
[46] = test system: Salmonella enterica subsp. enterica serovar Gallinarum; assay: Antimicrobial activity against Salmonella gallinarum X142 at 10 ppm after 24 hrs
Micrococcus luteus [47] = assay: Antimicrobial activity against Sarcina lutea 9341 at 5 ppm after 24 hrs
Staphylococcus aureus [48] = assay: Antimicrobial activity against Staphylococcus aureus 6538-P at 10 ppm after 48 hrs
Pseudomonas aeruginosa [49] = assay: Antimicrobial activity against Pseudomonas aeruginosa NCTC 10490 at 50 ppm after 48 hrs
Escherichia coli [50] = assay: Antimicrobial activity against Escherichia coli 10536 at 200 ppm after 24 hrs
Bacillus subtilis [51] = assay: Antimicrobial activity against Bacillus subtilis 6633 at 50 ppm after 48 hrs
Streptococcus pneumoniae [52] = assay: Antimicrobial activity against Pneumococcus clinical isolates at 50 ppm after 48 hrs
[53] = test system: Bordetella bronchiseptica; assay: Antimicrobial activity against Bordetella bronchiseptica 4614 at 5 ppm after 24 hrs
[54] = test system: Bordetella bronchiseptica; assay: Antimicrobial activity against Bordetella bronchiseptica 4614 at 200 ppm after 48 hrs
Aspergillus niger [55] = assay: Antimicrobial activity against Aspergillus niger at 200 ppm after 24 hrs
Escherichia coli [56] = assay: Antimicrobial activity against Escherichia coli 10536 at 10 ppm after 24 hrs
[57] = test system: Salmonella enterica subsp. enterica serovar Gallinarum; assay: Antimicrobial activity against Salmonella gallinarum X142 at 200 ppm after 24 hrs
Aspergillus niger [58] = assay: Antimicrobial activity against Aspergillus niger at 50 ppm after 24 hrs
Escherichia coli [59] = assay: Antimicrobial activity against Escherichia coli 10536 at 50 ppm after 24 hrs
Staphylococcus aureus [60] = assay: Antimicrobial activity against penicilln-resistant Staphylococcus aureus at 100 ppm after 24 hrs
Micrococcus luteus [61] = assay: Antimicrobial activity against Sarcina lutea 9341 at 10 ppm after 24 hrs
Streptococcus pneumoniae [62] = assay: Antimicrobial activity against Pneumococcus clinical isolates at 10 ppm after 48 hrs

Measured: Activity

C=CC(C)(C)c1c(O)c2c(c3ccc(=O)oc13)OC(C)(C)CC2=O
inactive: [1] | Staphylococcus aureus [2] | [3] | Streptococcus pneumoniae [4] | Bacillus subtilis [5] | [6] | Micrococcus luteus [7] | Aspergillus niger [8] | Escherichia coli [9] | Pseudomonas aeruginosa [10] | Staphylococcus aureus [11]

C=CC(C)(C)c1c(O)c(/C=C/C(=O)O)c2c(c1O)C(=O)CC(C)(C)O2
inactive: [1] | Staphylococcus aureus [2] | [3] | Streptococcus pneumoniae [4] | Bacillus subtilis [5] | [6] | Micrococcus luteus [7] | Aspergillus niger [8] | Escherichia coli [9] | Pseudomonas aeruginosa [10] | Staphylococcus aureus [11]

COc1c2c(cc3oc(=O)ccc13)OC(C)(C)C=C2
inactive: [1] | Staphylococcus aureus [2] | [3] | Streptococcus pneumoniae [4] | Bacillus subtilis [5] | [6] | Micrococcus luteus [7] | Aspergillus niger [8] | Escherichia coli [9] | Pseudomonas aeruginosa [10] | Staphylococcus aureus [11]

C=CC(C)(C)c1cc2c(O)c3c(c(C(C)(C)C=C)c2oc1=O)OC(C)(C)C=C3
inactive: [1] | Staphylococcus aureus [2] | [3] | Streptococcus pneumoniae [4] | Bacillus subtilis [5] | [6] | Micrococcus luteus [7] | Aspergillus niger [8] | Escherichia coli [9] | Pseudomonas aeruginosa [10] | Staphylococcus aureus [11]

C=CC(C)(C)c1c2c(c(O)c3ccc(=O)oc13)C=CC(C)(C)O2
active: Bacillus subtilis [14] | [15] | [17] | Staphylococcus aureus [18] | Streptococcus pneumoniae [19] | Pseudomonas aeruginosa [24] | Micrococcus luteus [25] | Streptococcus pneumoniae [27] | [29] | Staphylococcus aureus [32] | Staphylococcus aureus [33] | Bacillus subtilis [34] | Bacillus subtilis [36] | Pseudomonas aeruginosa [37] | Pseudomonas aeruginosa [38] | Staphylococcus aureus [48] | Pseudomonas aeruginosa [49] | Bacillus subtilis [51] | Streptococcus pneumoniae [52] | [54] | Streptococcus pneumoniae [62]
not listed: Staphylococcus aureus [2] | [3] | Streptococcus pneumoniae [4] | Bacillus subtilis [5] | [6] | Micrococcus luteus [7] | Aspergillus niger [8] | Escherichia coli [9] | Pseudomonas aeruginosa [10] | Staphylococcus aureus [11]
inactive: all other assays above
